In paper PMC8341910, “Structural and biophysical insights into the mode of covalent binding of rationally designed potent BMX inhibitors” (RSC Chemical Biology, 2020):
“And” between values parts separate entries of the source, which are not always exact repeats. Equal entries are not always repeated. Where two headings read alike, the source gives them in different places.

Key:
22 RV1 = assay: Multi cell line growth assay (CellTiter-Glo, 72 h); type: cell-based, human; conditions: Homo sapiens, 22Rv1, Prostate, ND = no growth inhibition observed
[1] = biological target: T1, recombinant human BMX protein (hBMX) (Homo sapiens, UniProt P51813); assay: Differential scanning fluorimetry (DSF); type: binding; conditions: 100 μM compound
T1 construct: Crystallization, data collection, and structure determination of BMX catalytic domain in; made in house; host or cells: Sf-9 insect cells
Description: We further characterized the binding interaction between JS24–JS27 and BMX by using differential scanning fluorimetry (DSF) and surface plasmon resonance (SPR). Purified recombinant human BMX protein (hBMX) was first subjected to thermal scanning in the absence and presence of JS24–JS27, and the respective protein melting temperature (Tm) calculated.
Differential Scanning Fluorimetry:
DSF was performed in MicroAmp™ EnduraPlate™ Optical 96 -Well Clear Reaction Plates
with Barcode (Applied Biosystems, Life Technologies, California, USA) using a QuantStudio
7 Flex Real-Time PCR System (Applied Biosystems). Pre-incubation of the protein with the
compound for 2 hours at 4 °C was required prior to DSF experiments. The final reaction mixture
(20 μL of total volume) contained 4 μg of His6-BMX, 4-fold of Protein Thermal Shift™ Dye
(Applied Biosystems) diluted in protein buffer solution, and 100 μM of compound. The
temperatures were obtained by taking the midpoint of each transition.

PC3 = assay: Multi cell line growth assay (CellTiter-Glo, 72 h); type: cell-based, human; conditions: Homo sapiens, PC-3, Prostate, ND = no growth inhibition observed
in vitro = conditions: PAMPA
Description: (§1) For assessment of drug permeability, we relied on parallel artificial membrane permeability assay (PAMPA) performed at Pion Inc. with the PAMPA Evolution™ instrument (Table S1, ESI ^†).
(§2) methods (ESOL model1 and Ali et al.2) PAMPA: Pe is effective permeability (x10-6 cm/sec)
(§3) measured directly from assay at pH 6.8 and %R is membrane retention.
(§4) as the average of quadruplicates. Und label refers to compounds with extremely low solubility
(§5) for which UV limits were below the detection limits therefore considered undetected.
(§6) Compounds were labelled as high permeability (green), medium permeability (orange) or low
(§7) Artificial Membrane Permeability (PAMPA):
(§8) The PAMPA Evolution™ instrument was used to determine permeability, at Pion Inc. In
(§9) PAMPA, a sandwich is formed such that each composite well is divided into two chambers,
(§10) measured at pH 6.8 in the donor compartment using low-binding, low UV Prisma buffer. The
(§11) drug-free acceptor compartment was filled with acceptor sink buffer containing a scavenger at
(§12) the start of the test. The proprietary scavenger mimics serum proteins and blood circulation,
(§13) thus creating sink conditions. Aqueous solutions of studied compounds are prepared by diluting
(§14) and thoroughly mixing 3 µL of DMSO stock in 600 µL of Prisma HT buffer. Final
(§15) concentration of organic solvent (DMSO) in aqueous buffer is ≤ 0.5% (v/v). The reference
(§16) solution is identical to the donor at time zero, so that any surface adsorption effects from the
(§17) plastic ware is compensated. The PAMPA sandwich was assembled and allowed to incubate
(§18) for ~15 hours. The solutions in the donor compartment were un-stirred within duration of the
(§19) experiment. Thus, the thickness of the aqueous boundary layer expected to be about 1000 µm.
(§20) The sandwich was then separated, and both the donor and receiver compartments were assayed
(§21) for the amount of drug present by comparison with the UV spectrum obtained from reference

BMX = biological target: T2, BMX (Homo sapiens, UniProt P51813); assay: BMX biochemical activity assay (HTRF, phosphorylation of a biotinylated peptide)
T2 sequence (P51813 1-675): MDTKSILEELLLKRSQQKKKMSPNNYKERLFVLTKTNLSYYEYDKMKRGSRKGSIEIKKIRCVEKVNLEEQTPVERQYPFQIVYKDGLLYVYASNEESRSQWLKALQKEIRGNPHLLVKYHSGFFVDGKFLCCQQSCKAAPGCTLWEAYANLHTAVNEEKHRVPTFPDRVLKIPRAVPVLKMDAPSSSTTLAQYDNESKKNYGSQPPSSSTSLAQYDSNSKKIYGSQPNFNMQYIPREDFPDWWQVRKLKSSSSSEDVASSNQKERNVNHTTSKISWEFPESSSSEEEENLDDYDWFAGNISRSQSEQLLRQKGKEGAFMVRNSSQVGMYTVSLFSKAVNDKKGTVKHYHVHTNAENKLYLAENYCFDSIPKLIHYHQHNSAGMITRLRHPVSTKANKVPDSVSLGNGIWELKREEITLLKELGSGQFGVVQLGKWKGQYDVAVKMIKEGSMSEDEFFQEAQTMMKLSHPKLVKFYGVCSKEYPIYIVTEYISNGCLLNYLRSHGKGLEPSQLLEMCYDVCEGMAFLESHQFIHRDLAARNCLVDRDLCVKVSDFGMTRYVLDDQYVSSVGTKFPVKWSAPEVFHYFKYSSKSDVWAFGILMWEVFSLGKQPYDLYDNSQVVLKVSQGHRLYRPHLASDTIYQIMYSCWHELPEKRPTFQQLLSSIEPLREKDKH

PC3 cells = assay: PC-3 cell growth assay (CellTiter-Glo, 96 h); type: cell-based; conditions: Homo sapiens, PC-3, 96 h, read-out: GI50 PC3
Description: (§22) GI50 values are reported in μM and are the mean of three individual experiments performed in triplicate. N.d., non-determined, no growth inhibition observed within the concentrations tested.
(§23) Cellular activity Assay: LNCaP and PC-3 Cell Growth Assay
(§24) Cells were seeded in white, opaque-bottom 96-well plates at 5000 cells/well (LNCaP) or 2000 cells/well (PC-3) in a total volume of 100 µL of culture media.
(§25) fold) in 100 µL media were added to the cells 24 hours later. After 96 hours incubation cellular viability was assessed by CellTiter-Glo® (Promega) according to the manufacturer’s instructions. The values were normalized to vehicle and IC50 was calculated using GraphPad

DU145 = assay: Multi cell line growth assay (CellTiter-Glo, 72 h); type: cell-based; conditions: Homo sapiens, DU-145, Prostate, ND = no growth inhibition observed
LNCaP cells = assay: LNCaP cell growth assay (CellTiter-Glo, 96 h); type: cell-based; conditions: Homo sapiens, read-out: GI50 LNCaP
Description: as §22, §23, §24, §25

DAUDI = assay: Multi cell line growth assay (CellTiter-Glo, 72 h); type: cell-based, human; conditions: Homo sapiens, Daudi, Lymphoid, ND = no growth inhibition observed
CAOV3 = assay: Multi cell line growth assay (CellTiter-Glo, 72 h); type: cell-based, human; conditions: Homo sapiens, Caov-3, Ovary, ND = no growth inhibition observed
[2] = biological target: NanoLuc®-BMX fusion vector in HEK293 cells (Homo sapiens, UniProt P51813); assay: NanoBRET TE intracellular kinase assay; type: cell-based; conditions: HEK293 transiently transfected with BMX; 1 h; duplicate, mean ± S.D.; read-out: intracellular target engagement IC50
Description: Target Engagement Intracellular Kinase Assay:
In-cell target engagement was performed at the Reaction Biology Corporation (USA) using the NanoBRETTM technology. Very briefly, HEK296 cells, purchased from ATCC, were
with the reference compound Dasatinib, for 1 hour of incubation. Compounds were diluted 10 times with 3-fold dilution, starting at 1 µM. Curve fits were performed only when % NanoBret
determined using the GraphPad Prism 8 (USA).

U-87MG = assay: Multi cell line growth assay (CellTiter-Glo, 72 h); type: cell-based; conditions: Homo sapiens, Brain, ND = no growth inhibition observed
His6-hsBMX = biological target: T3, His6-hsBMX (Homo sapiens, UniProt P51813); assay: Surface plasmon resonance (SPR); type: binding; conditions: from kinetic constants
T3 construct: Crystallization, data collection, and structure determination of BMX catalytic domain in; made in house; host or cells: Sf-9 insect cells
Description: response upon compound injection (t=0s), or upon washing (t=220s), on immobilized His6-
hsBMX surfaces. Compound concentrations injected on already saturated surfaces were not
included in the 1:1 Langmuir fitting model. X-axis: time (s); y-axis: response (arbitrary units).
Inset plots [x-axis: compound concentration (M); y-axis: response (arbitrary units)] show the
steady-state affinity (KDss) fit for the interactions wherein equilibrium was reached.
Surface Plasmon Resonance:
The kinetic and affinity parameters of protein-compound interaction were evaluated by SPR.
Experiments were carried out in a Biacore 4000 instrument (Biacore AB, GE Healthcare Life
Sciences, Uppsala, Sweden) at 25 °C. His6-BMX protein was diluted to 10 µg/mL in sodium
acetate pH 5.5, in the presence of 5 µM staurosporine and immobilized onto CM5 (Series S)
sensor chips, using the standard amine coupling procedure. Prior to immobilization, the
carboxymethylated surface of the chip was activated with 400 mM 1-ethyl-3-(3-
dimethylaminopropyl)-carbodiimide and 100 mM N-hydroxysuccinimide for 10 min. HBS-N
(10 mM HEPES pH7.4, 150mM NaCl) was used as the background buffer. Protein was coupled
to the surface after 2 to 10 min injection times, at a flow rate of 10 µL/min, in order to reach
1500 to 3500 response units (RU). The remaining activated carboxymethylated groups were
blocked with a 7 min injection of 1 M ethanolamine pH 8.5. Compounds were pre-diluted in
DMSO to 50x the desired highest tested concentration and diluted afterwards in running buffer
(20 mM HEPES pH 7.4, 150 mM NaCl, 1 mM DTT, 0.1 mM EGTA, 0.05 % (v/v) TWEEN-
20, 5 mM MgCl2) in order to reach 2% of DMSO concentration. A DMSO solvent correction
(1% - 3%) was performed to account for variations in bulk signal and to achieve high-quality
data. Each compound was injected over immobilized His6-BMX for 220 s (30 µL min-1;
association phase) followed by 600 to 2000 s of buffer flow (dissociation phase) at a maximum
five times in 2-fold dilution series. All sensorgrams were processed by first subtracting the
binding response recorded from the control surface (reference spot), followed by subtracting
the buffer blank injection from the reaction spot. All datasets were fit to a simple 1:1 Langmuir
interaction model with the provided Biacore 4000 Evaluation software, to determine kinetic rate constants (kon, koff) or steady-state affinity (KDss).

[3] = biological target: T4, wild-type BMX in PC3 cells (Homo sapiens, UniProt P51813); assay: BMX degradation assay in PC3 cells (Western blot); type: cell-based; conditions: 10 μM; 24 h and 72 h; band intensity normalized to α-Tubulin
T4 construct: endogenous in cells; host or cells: PC3 prostate cancer cells (wild-type, untransfected)
Description: The cell proliferation depends on BMX kinase activity that was used to monitor the cellular activity of the compounds (IC50). […].  Fig. 5 (a) Intracellular target engagement in HEK293 cells transiently transfected with BMX expressing NanoLuc®-BMX fusion vector with Promega's NanoBRET™ TE Intracellular Kinase Assay. […] Band intensity was measured using ImageJ and normalized with α-Tubulin band intensity. […] Data are mean ± standard deviation obtained from at least three independent measurements (n = 3). See ESI ^† for additional data and analysis. […] | page 12: […]
degradation assay. Protein band intensity normalized with α-Tubulin band intensity and quantified using ImageJ. Data was obtained from at least three independent measurements […]
concentration against PC3 cells, plated on 6-well plates, a day after attachment. DMSO was used as a control vehicle. At 24 h and 72 h of incubation, cells were washed in 1X PBS and lysed in 100 µL RIPA Buffer (in house) supplemented with EDTA-free Protease Inhibitor Cocktail (Merk) and DNase I (Merk). The lysis procedure was performed by re-suspending cells continuously, followed by a incubation of 30 min on ice. BMX antibody (Abcam) and tubulin antibody (Cell signaling Technology) were used in the Western blot. Band intensity […]

[4] = pH 6.8
Description: as §1, §2, §3, §4, §5, §6, §7, §8, §9, §10, §11, §12, §13, §14, §15, §16, §17, §18, §19, §20, §21

Jurkat = assay: Multi cell line growth assay (CellTiter-Glo, 72 h); type: cell-based, human; conditions: Homo sapiens, Jurkat, Blood, ND = no growth inhibition observed
SK-N-MC = assay: Multi cell line growth assay (CellTiter-Glo, 72 h); type: cell-based, human; conditions: Homo sapiens, SK-N-MC, Brain, ND = no growth inhibition observed
LNCaP = assay: Multi cell line growth assay (CellTiter-Glo, 72 h); type: cell-based, human; conditions: Homo sapiens, LNCaP, Prostate, ND = no growth inhibition observed within the concentrations tested
[5] = Dynamic light scattering, colloidal aggregation; type: physicochemical; conditions: deionized and filtered water (0.1% DMSO), kinetic from dmso stock, measured at 10 µM, 1 µM and 100 nM, 25 °C, read-out: DLS maximum soluble concentration at which no aggregates are observed
Description: In addition, we measured particle sizes by using dynamic light scattering (DLS).
DLS is measured at 10 µM, 1µM and 100 nM. The maximum soluble
concentration – at which no aggregates are observed - is indicated and the colour code indicates
Dynamic Light Scattering:
Dynamic light scattering (Zetasizer Nano S, Malvern, UK) was used to determine compound colloidal aggregation. […] A 10 mM stock solution of
test compounds was prepared in DMSO, following dilution to deionized and filtered water to
obtain an analyte solution of 10 μM (0.1% DMSO). Colloidal aggregation was measured
through sequential dilutions at 10 μM, 1 μM and 0.1 μM.

RS4(11) = assay: Multi cell line growth assay (CellTiter-Glo, 72 h); type: cell-based, human; conditions: Homo sapiens, RS4-11, Lung (so in the source), ND = no growth inhibition observed
MDA-MB-231 = assay: Multi cell line growth assay (CellTiter-Glo, 72 h); type: cell-based; conditions: Homo sapiens, Breast, ND = no growth inhibition observed
Kasumi = assay: Multi cell line growth assay (CellTiter-Glo, 72 h); type: cell-based, human; conditions: Homo sapiens, Blood, ND = no growth inhibition observed

## C=CC(=O)Nc1cc(-n2c(=O)ccc3cnc4ccc(-c5ccc(NS(C)(=O)=O)cc5)cc4c32)ccc1C [BMX-IN-1, reference compound]
22 RV1
  GI50: 2070 ± 60 nM
[1]; versus apo-BMX, read-out: ΔTm
  ΔTm at 100 µM: 8.04 ± 0.32 °C
[1]; apo-BMX Tm 51.8-52.2 °C
  Average Tm of BMX with compound: 60.17±0.32 °C
PC3
  GI50: 11000 ± 1130 nM
In vitro; pH 6.8, PAMPA permeability
  Papp: 8.9 ×10⁻⁶ cm/s
In vitro; pH 6.8, PAMPA/Pe effective permeability
  Papp: 8.9 ± 0.8 ×10⁻⁶ cm/s
BMX; Experiment 1 of Fig. S3, control JS9A (in-house BMX-IN-1), read-out: BMX IC50
  IC50: 360 ± 24 nM
BMX; Experiment 2 of Fig. S3, control commercial BMX-IN-1, read-out: BMX IC50
  IC50: 55 ± 35 nM
BMX; Experiment 3 of Fig. S3, control commercial BMX-IN-1, read-out: BMX IC50
  IC50: 230 ± 34.5 nM
BMX; Experiment 4 of Fig. S3 = Fig. 1b, duplicate, mean ± S.D., read-out: BMX inhibition IC50
  IC50: 50.2 nM and 50 nM
PC3 cells
  GI50: 11500 ± 2200 nM
DU145
  GI50: 17700 nM
LNCaP cells
  GI50: 1700 nM
DAUDI
  GI50: 1680 ± 70 nM
CAOV3
  GI50: 7680 ± 130 nM
[2]
  IC50: 495 nM
U-87MG
  GI50: 5330 ± 190 nM
His6-hsBMX
  Kd: 69 nM
[3]
  degradation of BMX protein: induce degradation of wild-type BMX in PC3 cells
[4]
  PAMPA/%R membrane retention: 55±8%
Jurkat
  GI50: 5990 nM
SK-N-MC
  GI50: 2360 nM
LNCaP
  GI50: 1810 ± 50 nM
[5]
  solubility: ≥ 10 µM
RS4(11)
  GI50: 1180 ± 60 nM
MDA-MB-231
  GI50: 23600 ± 480 nM
Kasumi
  GI50: 3130 ± 60 nM
